The source of these data is ChEMBL document CHEMBL5131558, “Fluorescent PARP Inhibitors Applied To Intracranial Glioblastoma: Accumulation and Persistence In Vivo” (ACS Med Chem Lett, 2022).

SMILES strings stand for the structures.

The subject of data set [1] is U-87 MG. The experiment in a line: Cytotoxicity against human U87 cells assessed as reduction in cell viability incubated for 72 hrs by alamar blue assay. Format: functional, cell-based, U-87MG ATCC.
Data set [2] deals with U-87 MG. Nature of the data set: Cytotoxicity against human U87 cells assessed as reduction in cell viability incubated for 72 hrs in presence of rAOC-Rib by alamar blue assay. It is filed as functional, cell-based, U-87MG ATCC.
Data set [3] in a line: Half life of the compound. It is filed as physicochemical.
The subject of data set [4] is MDA-MB-231. The experiment in a line: Cytotoxicity against human MDA-MB-231 cells assessed as reduction in cell viability incubated for 72 hrs by alamar blue assay. Format: functional, cell-based. Particulars: MDA-MB-231, 72 h; call rule not given here.
The nature of data set [5]: Drug uptake in tumor of mouse xenografted with human U87 MG cells assessed as increase in fluorescence signal at 25 nmol, iv measured after 24 hrs by […] imaging method. Format: ADME, organism-based, Neoplasm, U-87MG ATCC. The conditions noted are these: in vivo.
Data set [6] in a line: Drug uptake in liver of mouse xenografted with human U87 MG cells at 25 nmol, iv measured after 24 hrs by fluorescence imaging analysis. The conditions noted are these: in vivo. Format: ADME, organism-based, U-87MG ATCC.
For data set [7], the system named is MDA-MB-231. Nature of the data set: Inhibition of PARP production in human MDA-MB-231 cells preincubated for 24 hrs followed by H2O2 addition and measured over 15 mins. It is filed as cell-based. The conditions noted are these: dose 0.001-10 µM, time 1455.0 min, DDE = dose-dependent effect.
In a further data set the test system is U87. The experiment in a line: Inhibition of PARP production in human U87 cells preincubated for 24 hrs followed by H2O2 addition and measured over 15 mins. Format: cell-based. The conditions noted are these: dose 0.1-10 µM, time 1455.0 min, DDE = dose-dependent effect.

Turning to `CC1(C)C(/C=C/C2=C(Cl)C(=C/C=C3/N(CCCCCC(=O)O)c4ccccc4C3(C)C)/CCC2)=[N+](CCCCCC(=O)O)c2ccccc21`, the IC50 in the data set with U-87 MG [1] amounted to 27 µM; in the data set with U-87 MG [2], 28 µM. In data set [3], the half-life was 30 min.

Regarding `CN(CCCCCCCCN)Cc1ccc(-c2[nH]c3cc(F)cc4c3c2CCNC4=O)cc1`, the IC50 with U-87 MG [1] worked out at 79 µM.

In the case of `CNCc1ccc(-c2[nH]c3cc(F)cc4c3c2CCNC4=O)cc1` [RUCAPARIB], the IC50 came out at 20 µM with U-87 MG [1] and 39 µM with MDA-MB-231 [4].

In the case of `CN(Cc1ccc(-c2[nH]c3cc(F)cc4c3c2CCNC4=O)cc1)C(=O)CCCCCN1/C(=C/C=C2\CCCC(/C=C/C3=[N+](CCCCCC(=O)O)c4ccccc4C3(C)C)=C2Cl)C(C)(C)c2ccccc21`, the IC50 in the data set with U-87 MG [1] came out at 15 µM; in the data set on MDA-MB-231 [4], 13 µM. The Drug uptake entry in data set [5] and in data set [6] was “Active” throughout. Besides, the inhibition entry in the data set on MDA-MB-231 [7] is “Dde”.

With `CN(Cc1ccc(-c2[nH]c3cc(F)cc4c3c2CCNC4=O)cc1)C(=O)CCCCCCCNC(=O)CCCCCN1/C(=C/C=C2\CCCC(/C=C/C3=[N+](CCCCCC(=O)O)c4ccccc4C3(C)C)=C2Cl)C(C)(C)c2ccccc21`, the IC50 in the data set on U-87 MG [1] was 12 µM. Further, the inhibition result with U87 was “Dde”.
